Values of other authors in patent US8188047B2, “Therapeutic and cosmetic compositions for treatment of skin” (priority 2009, dated 2012).

Conditions: typically

FC1(F)C(F)(F)C(F)(F)C2(F)C(F)(F)C(F)(F)C(F)(F)C(F)(F)C2(F)C1(F)F (stereo not shown) [perfluorodecalin]
stable up to (temperature): up to 400 °C
